# Patent US11524945B2, “Compounds for treating ILK-mediated diseases” (The Cleveland Clinic Foundation, priority 2018, dated 2022)
# Like-named read-outs stand apart in the source and are kept apart here.
# What was measured:
# [1] = Solubility in PBS at pH 7.4; type: physicochemical; conditions: aqueous buffer
# [2] = system: Xenograft TNBC tumors (MDA-MB231); assay: TNBC xenograft model (MDA-MB231); type: in vivo, mice; conditions: 100 mg/kg five times/week
# Method: The next step was to evaluate the effect of Csbl-1 in mice bearing TNBC tumors. Given the fact that higher ILK expression level is correlated with poor outcome and reduced survival for TNBC patients (FIG. 6) and the above TNBC cell-based data, we decided to test whether Csbl-1 would be effective in suppressing the TNBC tumors in mice. […] Xenograft TNBC tumors were generated using MDA-MB231 on 8 mice. […] when the tumors were ˜3 mm, 4 mice were fed with Csbl-1 at 100 mg/kg five times/week and the other 4 mice (control, no drug) had no Csbl-1 treatment. […] We also examined the Csbl-1 effect on the mouse models with human derived patient TNBC tumor (PDX).
# [3] = Stability in human plasma; type: in vitro ADME
# [4] = Permeability in Caco2 cell line; type: in vitro ADME; conditions: human
# [5] = molecular target: purified recombinant ILK (Homo sapiens (Human), UniProt Q13418); assay: ILK binding affinity, EnSpire fluorescence intensity
# [6] = Metabolic stability in rat liver microsomes; type: in vitro ADME; conditions: for Remaining Percentage (%): Rat
# [7] = molecular target: CYP 3A4-M (Homo sapiens (Human), UniProt P08684); assay: CYP inhibition in human liver microsomes, 3A4-M; type: in vitro ADME
# [8] = molecular target: purified EGFR (Homo sapiens (Human), UniProt P00533); assay: kinase assay using purified EGFR; type: biochemical
# [9] = Log D in 1-Octanol/PBS pH 7.4; type: physicochemical
# [10] = Protein binding in rat plasma; type: in vitro ADME
# [11] = Oral toxicity in normal mice; type: in vivo; conditions: 25 to 510 mg/kg every day for two weeks, CMC/TWEEN 80
# [12] = molecular target: CYP 2C9 (Homo sapiens (Human), UniProt P11712); assay: CYP inhibition in human liver microsomes, 2C9; type: in vitro ADME
# [13] = Stability in mouse plasma; type: in vitro ADME
# [14] = system: MCF10a cells; assay: Proliferation of normal breast MCF10a cells; type: cell-based; conditions: compounds at final 2 μM, FIG. 5 panel A
# Method: Cells were seeded at 20,000 cells/ml in 12 well plates in complete media. On day 3, the compounds were added at final 2 μM and the cells were counted every 3 days. […] Cells were seeded at 10,000 cells/ml in 12 well plates in complete media. The compounds were added at final 2 μM on day 2 and the cells were counted every 2 days.
# [15] = molecular target: CYP 2C19 (Homo sapiens (Human), UniProt P33261); assay: CYP inhibition in human liver microsomes, 2C19; type: in vitro ADME
# [16] = Stability in PBS at pH 7.4; type: physicochemical
# [17] = Metabolic stability in mouse liver microsomes; type: in vitro ADME; conditions: for Remaining Percentage (%): Mouse
# [18] = Protein binding in human plasma; type: in vitro ADME
# [19] = Protein binding in mouse plasma; type: in vitro ADME
# [20] = molecular target: ILK-PINCH-Parvin (IPP) complex (Homo sapiens (Human), UniProt Q13418); assay: IPP-mediated actin bundling assay; type: biochemical; conditions: FIG. 4
# Description: Next, we set out to obtain in vitro evidence of Csbl-1. […] Mutation of L207 into bulky Trp in ILK abolished the MgATP binding to ILK and impaired the formation and morphology of actin bundles (Vaynberg et al., 2018). Using the same actin bundling assay, we examined the effect of Csbl-1 on the IPP-mediated actin bundling. […] In general, more bundles with smaller sizes were observed as a result of Csbl-1 interference. Csbl-1 would knock out MgATP at the ILK site and increase the local concentration of Mg^2+, which may impact the actin bundling process (Tang and Janmey, 1996, Vaynberg et al., 2018).
# [21] = Stability in rat plasma; type: in vitro ADME
# [22] = molecular target: CYP 2C8 (Homo sapiens (Human), UniProt P10632); assay: CYP inhibition in human liver microsomes, 2C8; type: in vitro ADME
# Sequence of CYP 2C8 (P10632 whole entry): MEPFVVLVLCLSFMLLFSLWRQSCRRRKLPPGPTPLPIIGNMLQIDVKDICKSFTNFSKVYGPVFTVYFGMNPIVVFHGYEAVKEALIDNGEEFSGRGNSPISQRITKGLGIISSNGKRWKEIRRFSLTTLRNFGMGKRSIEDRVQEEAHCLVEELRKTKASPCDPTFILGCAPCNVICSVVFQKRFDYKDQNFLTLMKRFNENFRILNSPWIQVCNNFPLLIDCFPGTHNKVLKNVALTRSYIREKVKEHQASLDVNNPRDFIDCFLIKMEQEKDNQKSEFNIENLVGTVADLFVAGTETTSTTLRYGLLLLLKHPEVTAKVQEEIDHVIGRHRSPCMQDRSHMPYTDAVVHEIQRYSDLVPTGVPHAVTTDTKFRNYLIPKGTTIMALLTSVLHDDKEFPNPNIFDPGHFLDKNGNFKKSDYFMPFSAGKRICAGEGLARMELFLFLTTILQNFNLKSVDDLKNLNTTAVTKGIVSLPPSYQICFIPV
# Sequence of purified recombinant ILK (Q13418 whole entry): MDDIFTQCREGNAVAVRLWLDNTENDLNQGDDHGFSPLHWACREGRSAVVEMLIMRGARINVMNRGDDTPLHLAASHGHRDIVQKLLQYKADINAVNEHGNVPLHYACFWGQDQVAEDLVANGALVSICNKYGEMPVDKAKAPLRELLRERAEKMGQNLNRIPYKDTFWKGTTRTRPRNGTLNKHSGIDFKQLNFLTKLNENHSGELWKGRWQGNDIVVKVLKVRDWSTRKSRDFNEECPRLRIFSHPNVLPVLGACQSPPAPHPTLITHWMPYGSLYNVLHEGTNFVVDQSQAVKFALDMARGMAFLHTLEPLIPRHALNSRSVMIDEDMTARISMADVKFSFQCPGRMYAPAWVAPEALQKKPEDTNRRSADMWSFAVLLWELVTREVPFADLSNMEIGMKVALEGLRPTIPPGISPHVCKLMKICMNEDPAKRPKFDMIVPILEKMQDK
# Sequence of purified EGFR (P00533 25-1210): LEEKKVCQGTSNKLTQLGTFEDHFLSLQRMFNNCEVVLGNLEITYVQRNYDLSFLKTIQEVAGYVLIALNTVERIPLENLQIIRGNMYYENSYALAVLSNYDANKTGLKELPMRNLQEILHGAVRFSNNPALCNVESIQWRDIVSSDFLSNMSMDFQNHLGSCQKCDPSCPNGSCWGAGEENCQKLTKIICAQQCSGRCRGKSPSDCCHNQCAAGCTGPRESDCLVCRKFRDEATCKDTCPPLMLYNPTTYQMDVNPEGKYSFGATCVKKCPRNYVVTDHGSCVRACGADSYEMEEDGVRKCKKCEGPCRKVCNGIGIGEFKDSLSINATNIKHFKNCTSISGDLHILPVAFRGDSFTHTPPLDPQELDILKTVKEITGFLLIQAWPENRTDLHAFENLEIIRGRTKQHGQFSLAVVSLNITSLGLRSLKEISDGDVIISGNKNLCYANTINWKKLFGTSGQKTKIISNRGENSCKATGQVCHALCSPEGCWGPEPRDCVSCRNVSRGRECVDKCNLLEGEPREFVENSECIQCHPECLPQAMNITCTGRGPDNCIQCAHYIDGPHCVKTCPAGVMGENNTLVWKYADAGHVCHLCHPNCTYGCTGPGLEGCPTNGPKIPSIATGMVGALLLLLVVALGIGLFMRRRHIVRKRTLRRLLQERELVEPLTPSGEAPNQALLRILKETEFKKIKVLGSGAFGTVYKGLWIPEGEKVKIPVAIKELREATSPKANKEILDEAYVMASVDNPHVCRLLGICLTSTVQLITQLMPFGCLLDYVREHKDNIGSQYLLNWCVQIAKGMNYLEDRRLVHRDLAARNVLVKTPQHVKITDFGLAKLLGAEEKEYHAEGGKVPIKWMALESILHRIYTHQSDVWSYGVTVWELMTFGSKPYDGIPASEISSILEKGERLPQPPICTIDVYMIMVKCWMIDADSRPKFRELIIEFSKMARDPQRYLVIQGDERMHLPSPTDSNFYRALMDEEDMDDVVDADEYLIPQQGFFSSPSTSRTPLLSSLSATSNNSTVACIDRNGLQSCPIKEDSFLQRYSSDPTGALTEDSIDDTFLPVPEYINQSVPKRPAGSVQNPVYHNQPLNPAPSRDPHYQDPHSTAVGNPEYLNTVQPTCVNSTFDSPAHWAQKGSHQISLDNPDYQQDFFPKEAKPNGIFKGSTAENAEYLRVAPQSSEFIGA
# Sequence of CYP 2C9 (P11712 whole entry): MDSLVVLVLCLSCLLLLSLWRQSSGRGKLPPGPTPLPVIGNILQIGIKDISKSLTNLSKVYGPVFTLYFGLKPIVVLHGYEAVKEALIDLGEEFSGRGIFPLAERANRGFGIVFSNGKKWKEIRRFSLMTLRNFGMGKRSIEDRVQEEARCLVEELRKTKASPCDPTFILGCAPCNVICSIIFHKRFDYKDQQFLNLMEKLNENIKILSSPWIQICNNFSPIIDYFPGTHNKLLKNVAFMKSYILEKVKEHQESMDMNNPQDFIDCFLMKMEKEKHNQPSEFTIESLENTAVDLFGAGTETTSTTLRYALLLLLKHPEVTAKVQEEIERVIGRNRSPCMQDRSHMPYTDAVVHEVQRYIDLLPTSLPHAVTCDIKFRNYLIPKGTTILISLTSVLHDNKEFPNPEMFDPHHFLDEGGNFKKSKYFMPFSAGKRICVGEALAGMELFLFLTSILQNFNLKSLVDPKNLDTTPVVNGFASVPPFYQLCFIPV
# Sequence of ILK-PINCH-Parvin (IPP) complex (Q13418 whole entry): as the sequence (Q13418 whole entry) above
# Sequence of ILK-PINCH-Parvin (IPP) complex (P48059 whole entry partner): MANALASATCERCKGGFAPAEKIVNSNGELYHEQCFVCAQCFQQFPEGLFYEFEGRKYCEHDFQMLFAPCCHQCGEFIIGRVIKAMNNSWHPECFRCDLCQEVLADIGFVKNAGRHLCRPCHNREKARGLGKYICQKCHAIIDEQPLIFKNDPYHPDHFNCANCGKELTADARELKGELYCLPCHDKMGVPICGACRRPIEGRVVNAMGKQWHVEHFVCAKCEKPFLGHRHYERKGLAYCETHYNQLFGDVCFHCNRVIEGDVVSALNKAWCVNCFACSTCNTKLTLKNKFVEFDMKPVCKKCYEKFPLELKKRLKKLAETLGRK
# Sequence of ILK-PINCH-Parvin (IPP) complex (Q9NVD7 whole entry partner): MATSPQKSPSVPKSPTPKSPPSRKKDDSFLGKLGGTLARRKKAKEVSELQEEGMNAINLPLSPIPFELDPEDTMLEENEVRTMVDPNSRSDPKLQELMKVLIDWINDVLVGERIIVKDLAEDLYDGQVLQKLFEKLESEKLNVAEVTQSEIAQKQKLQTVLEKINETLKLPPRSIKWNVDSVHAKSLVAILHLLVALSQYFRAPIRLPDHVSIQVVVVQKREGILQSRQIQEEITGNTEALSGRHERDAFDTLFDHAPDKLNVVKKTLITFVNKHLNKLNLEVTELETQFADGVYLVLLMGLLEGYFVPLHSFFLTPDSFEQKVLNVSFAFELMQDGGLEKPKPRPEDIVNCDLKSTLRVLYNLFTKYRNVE
# Sequence of CYP 3A4-M (P08684 whole entry): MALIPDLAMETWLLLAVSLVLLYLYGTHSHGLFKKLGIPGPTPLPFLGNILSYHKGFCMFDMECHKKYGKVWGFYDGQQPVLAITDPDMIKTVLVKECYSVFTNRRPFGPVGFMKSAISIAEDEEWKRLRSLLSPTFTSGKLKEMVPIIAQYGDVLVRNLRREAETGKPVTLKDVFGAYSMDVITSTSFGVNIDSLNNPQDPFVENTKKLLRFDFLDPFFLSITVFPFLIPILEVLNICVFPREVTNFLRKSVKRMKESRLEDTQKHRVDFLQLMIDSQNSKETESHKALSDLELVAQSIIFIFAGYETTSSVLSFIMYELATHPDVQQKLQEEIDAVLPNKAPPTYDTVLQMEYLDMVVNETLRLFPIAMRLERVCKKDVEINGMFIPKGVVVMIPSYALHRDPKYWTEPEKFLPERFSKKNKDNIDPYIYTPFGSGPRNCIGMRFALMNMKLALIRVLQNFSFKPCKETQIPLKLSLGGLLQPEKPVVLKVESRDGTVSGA
# Sequence of CYP 2C19 (P33261 whole entry): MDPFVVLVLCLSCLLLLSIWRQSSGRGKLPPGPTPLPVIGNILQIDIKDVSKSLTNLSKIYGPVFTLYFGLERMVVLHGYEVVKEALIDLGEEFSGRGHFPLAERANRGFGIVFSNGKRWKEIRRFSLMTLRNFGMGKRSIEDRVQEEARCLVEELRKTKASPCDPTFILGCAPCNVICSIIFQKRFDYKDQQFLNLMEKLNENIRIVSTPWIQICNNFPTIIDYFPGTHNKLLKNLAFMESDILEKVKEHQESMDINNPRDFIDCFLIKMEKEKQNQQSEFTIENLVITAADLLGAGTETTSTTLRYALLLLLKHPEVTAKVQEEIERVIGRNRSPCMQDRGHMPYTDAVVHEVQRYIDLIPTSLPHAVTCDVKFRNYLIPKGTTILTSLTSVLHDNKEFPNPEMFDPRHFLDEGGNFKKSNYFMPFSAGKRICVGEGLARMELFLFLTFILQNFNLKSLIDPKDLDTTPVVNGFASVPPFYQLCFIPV
compound,measurement,setting,value
C#Cc1cc(Nc2ncnc3cc(OCCOC)ccc23)cc(OCCOCC)c1 [Compound 1],solubility,[1],7.96 µM
same,weight difference vs control mice,[2],no significant weight difference
same,Remaining Percentage (%),[3]; 0 min,100.00%
same,Remaining Percentage (%),[3]; 15 min,93.79%
same,Remaining Percentage (%),[3]; 30 min,93.79%
same,Remaining Percentage (%),[3]; 45 min,90.52%
same,Remaining Percentage (%),[3]; 60 min,90.20%
same,Remaining Percentage (%),[3]; 120 min,88.56%
same,recovery,"[4]; Caco-2, Caco2, AP-BL, read-out: Recovery (%)AP-BL",51%
same,recovery,"[4]; Caco-2, Caco2, BL-AP, read-out: Recovery (%)BL-AP",53.5%
same,efflux ratio,"[4]; Caco-2, Caco2",0.48
same,Papp A→B,"[4]; Caco-2, Caco2, A-B",15.4 ×10⁻⁶ cm/s
same,Papp B→A,"[4]; Caco-2, Caco2, B-A",7.31 ×10⁻⁶ cm/s
same,Binding Difference ILK (Kd)/EGFR (Kd),[5]; EnSpire fluorescence intensity,0.1565
same,Kd,"[5]; EnSpire fluorescence intensity, read-out: ILK - Binding affinity",2.77 µM
same,Kd,"[5]; fluorescence-based binding assay, purified ILK, read-out: KD to ILK",~2.77 µM
same,half-life,[6]; Rat liver microsomes,16 min
same,microsomal CLint,"[6]; Rat liver microsomes, read-out: CLint (μL/min/mg protein)",86.6 µL/min/mg
same,CLint scaled,"[6]; Rat liver microsomes, read-out: Scaled-up CLint",155 mL/min/kg
same,Remaining Percentage (%),"[6]; With NADPH, 0 min",100.00%
same,Remaining Percentage (%),"[6]; With NADPH, 15 min",45.00%
same,Remaining Percentage (%),"[6]; With NADPH, 30 min",21.08%
same,Remaining Percentage (%),"[6]; With NADPH, 45 min",11.69%
same,Remaining Percentage (%),"[6]; With NADPH, 60 min",7.65%
same,Remaining Percentage (%),"[6]; Without NADPH, 0 min",100.00%
same,Remaining Percentage (%),"[6]; Without NADPH, 15 min",95.03%
same,Remaining Percentage (%),"[6]; Without NADPH, 30 min",90.68%
same,Remaining Percentage (%),"[6]; Without NADPH, 45 min",91.30%
same,Remaining Percentage (%),"[6]; Without NADPH, 60 min",102.48%
same,IC50,[7],43.8 µM
same,IC50,[8],77.2 µM
same,logD,[9],3.61
same,recovery,[10],93.4%
same,fraction unbound,[10]; read-out: % Bound (converted),0.0083
same,toxic symptoms in normal mice,[11],no toxic symptoms
same,IC50,[12],13.8 µM
same,Remaining Percentage (%),[13]; 0 min,100.00%
same,Remaining Percentage (%),[13]; 15 min,96.17%
same,Remaining Percentage (%),[13]; 30 min,96.17%
same,Remaining Percentage (%),[13]; 45 min,97.56%
same,Remaining Percentage (%),[13]; 60 min,96.17%
same,Remaining Percentage (%),[13]; 120 min,93.73%
same,effect on proliferation of MCF10a cells,[14],little effect
same,IC50,[15],10.8 µM
same,Remaining Percentage (%),"[16]; PBS pH 7.4, 0 min",100.00%
same,Remaining Percentage (%),"[16]; PBS pH 7.4, 30 min",102.02%
same,Remaining Percentage (%),"[16]; PBS pH 7.4, 60 min",105.41%
same,Remaining Percentage (%),"[16]; PBS pH 7.4, 120 min",103.04%
same,Remaining Percentage (%),"[16]; PBS pH 7.4, 180 min",104.93%
same,Remaining Percentage (%),"[16]; PBS pH 7.4, 240 min",99.54%
same,half-life,[17]; Mouse liver microsomes,35.4 min
same,microsomal CLint,"[17]; Mouse liver microsomes, read-out: CLint (μL/min/mg protein)",39.2 µL/min/mg
same,CLint scaled,"[17]; Mouse liver microsomes, read-out: Scaled-up CLint",172 mL/min/kg
same,Remaining Percentage (%),"[17]; With NADPH, 0 min",100.00%
same,Remaining Percentage (%),"[17]; With NADPH, 15 min",72.40%
same,Remaining Percentage (%),"[17]; With NADPH, 30 min",51.67%
same,Remaining Percentage (%),"[17]; With NADPH, 45 min",37.39%
same,Remaining Percentage (%),"[17]; With NADPH, 60 min",32.04%
same,Remaining Percentage (%),"[17]; Without NADPH, 0 min",100.00%
same,Remaining Percentage (%),"[17]; Without NADPH, 15 min",93.90%
same,Remaining Percentage (%),"[17]; Without NADPH, 30 min",93.90%
same,Remaining Percentage (%),"[17]; Without NADPH, 45 min",91.46%
same,Remaining Percentage (%),"[17]; Without NADPH, 60 min",94.51%
same,recovery,[18],98.8%
same,fraction unbound,[18]; read-out: % Bound (converted),0.0303
same,recovery,[19],110%
same,fraction unbound,[19]; read-out: % Bound,0.01
same,effect on IPP-induced actin bundles,[20],substantial change of IPP-induced actin bundles
same,Remaining Percentage (%),[21]; 0 min,100.00%
same,Remaining Percentage (%),[21]; 15 min,92.93%
same,Remaining Percentage (%),[21]; 30 min,94.35%
same,Remaining Percentage (%),[21]; 45 min,93.29%
same,Remaining Percentage (%),[21]; 60 min,94.70%
same,Remaining Percentage (%),[21]; 120 min,91.52%
same,IC50,[22],3.24 µM
